Values after ≈ are worked out from the molar mass of the structure shown. Blank lines part the entries; values can stand above or below the compound they belong to. Square brackets hold non-standard residues; d marks the D form. Peptide text beside a SMILES is read from it. * marks the point of attachment. X4 = CC(C)C[C@@H](C[N+]1=C2CCCN2CCC1)N*; Pip = O=C(O)[C@@H]1CCCCN1; Iva = CC[C@](C)(N)C(=O)O; Aib = CC(C)(N)C(=O)O; βAla = NCCC(=O)O
How the values were obtained:
[1] = Inhibition of yeast mitochondrial F0F1-ATPase incubated for 15 mins by colorimetric assay; type: mitochondria, Saccharomyces cerevisiae, Mitochondria
[2] = Inhibition of bovine heart mitochondrial F0F1-ATP synthase incubated for 15 mins by colorimetric assay; type: mitochondria, Bos taurus, Mitochondria
KB 3-1 [3] = test: Antiproliferative activity against human KB-3-1 cells assessed as decrease in cellular ATP content and measured after 2 days by CellTiter-Glo luminescent assay; type: functional, cell-based; conditions: KB 3-1, 48 h
KB-V1 = test: Antiproliferative activity against human KB-V1 cells assessed as decrease in cellular ATP content and measured after 2 days by CellTiter-Glo luminescent assay; type: functional, cell-based; conditions: KB-V1, 48 h
K562 = test: Antiproliferative activity against human K562 cells assessed as decrease in cellular ATP content and measured after 2 days by CellTiter-Glo luminescent assay; type: functional, cell-based; conditions: K562, 48 h
U-937 [4] = test: Antiproliferative activity against human U-937 cells assessed as decrease in cellular ATP content and measured after 2 days by CellTiter-Glo luminescent assay; type: functional, cell-based; conditions: U-937, 48 h
A549 [5] = test: Antiproliferative activity against human A549 cells assessed as decrease in cellular ATP content and measured after 2 days by CellTiter-Glo luminescent assay; type: functional, cell-based; conditions: A549, 48 h
A498 = test: Antiproliferative activity against human A498 cells assessed as decrease in cellular ATP content and measured after 2 days by CellTiter-Glo luminescent assay; type: functional, cell-based; conditions: A498, 48 h
SK-OV-3 [6] = test: Antiproliferative activity against human SK-OV-3 cells assessed as decrease in cellular ATP content and measured after 2 days by CellTiter-Glo luminescent assay; type: functional, cell-based; conditions: SK-OV-3, 48 h
[7] = Cytotoxicity against mouse L929 cells assessed as reduction in cell viability; type: toxicity, cell-based
[8] = Anticancer activity against rat Ad12-3Y1-W5 cells assessed as reduction in cell viability incubated for 3 days by MTT assay; type: functional, cell-based; conditions: Ad12-3Y1-W5, 72 h
[9] = Anticancer activity against rat Ad12-3Y1-Z11 cells assessed as reduction in cell viability incubated for 3 days by MTT assay; type: functional, cell-based; conditions: Ad12-3Y1-Z11, 72 h
[10] = Anticancer activity against rat Ad12-3Y1-Z13 cells assessed as reduction in cell viability incubated for 3 days by MTT assay; type: functional, cell-based; conditions: Ad12-3Y1-Z13, 72 h
[11] = Anticancer activity against rat Ad12-3Y1-Z19 cells assessed as reduction in cell viability incubated for 3 days by MTT assay; type: functional, cell-based; conditions: Ad12-3Y1-Z19, 72 h
[12] = Anticancer activity against rat E1A-3Y1-1 cells assessed as reduction in cell viability incubated for 3 days by MTT assay; type: functional, cell-based; conditions: E1A-3Y1-1, 72 h
[13] = Anticancer activity against rat E1A-3Y1-2 cells assessed as reduction in cell viability incubated for 3 days by MTT assay; type: functional, cell-based; conditions: E1A-3Y1-2, 72 h
[14] = Anticancer activity against rat E1A-3Y1-3 cells assessed as reduction in cell viability incubated for 3 days by MTT assay; type: functional, cell-based; conditions: E1A-3Y1-3, 72 h
[15] = Anticancer activity against rat SR-3Y1-1 cells assessed as reduction in cell viability incubated for 3 days by MTT assay; type: functional, cell-based; conditions: SR-3Y1-1, 72 h
[16] = Anticancer activity against rat SR-3Y1-2 cells assessed as reduction in cell viability incubated for 3 days by MTT assay; type: functional, cell-based; conditions: SR-3Y1-2, 72 h
[17] = Anticancer activity against rat SR-3Y1-3 cells assessed as reduction in cell viability incubated for 3 days by MTT assay; type: functional, cell-based; conditions: SR-3Y1-3, 72 h
[18] = Anticancer activity against rat SV-3Y1-C66 cells assessed as reduction in cell viability incubated for 3 days by MTT assay; type: functional, cell-based; conditions: SV-3Y1-C66, 72 h
[19] = Anticancer activity against rat HR-3Y1-1 cells assessed as reduction in cell viability incubated for 3 days by MTT assay; type: functional, cell-based; conditions: HR-3Y1-1, 72 h
[20] = Anticancer activity against rat HR-3Y1-2 cells assessed as reduction in cell viability incubated for 3 days by MTT assay; type: functional, cell-based; conditions: HR-3Y1-2, 72 h
[21] = Anticancer activity against rat HR-3Y1-3 cells assessed as reduction in cell viability incubated for 3 days by MTT assay; type: functional, cell-based; conditions: HR-3Y1-3, 72 h
SK-OV-3 [22] = test: Anticancer activity against human SK-OV-3 cells assessed as reduction in cell viability incubated for 72 hrs by WST-8 assay; type: functional, cell-based; conditions: SK-OV-3, 72 h
[23] = Anticancer activity against human ACC-MESO-1 cells assessed as reduction in cell viability incubated for 72 hrs by WST-8 assay; type: functional, cell-based; conditions: ACC-MESO-1, 72 h
Jurkat [24] = test: Anticancer activity against human Jurkat cells assessed as reduction in cell viability incubated for 72 hrs by WST-8 assay; type: functional, cell-based
HL-60 = test: Anticancer activity against human HL-60 cells assessed as reduction in cell viability incubated for 72 hrs by CCK-8 assay; type: functional, cell-based; conditions: HL-60, 72 h
MCF7 [25] = test: Anticancer activity against human MCF7 cells assessed as reduction in cell viability incubated for 72 hrs by CCK-8 assay; type: functional, cell-based; conditions: MCF7, 72 h
NCI-H1299 = test: Anticancer activity against human NCI-H1299 cells assessed as reduction in cell viability incubated for 72 hrs by CCK-8 assay; type: functional, cell-based; conditions: NCI-H1299, 72 h
LoVo = test: Anticancer activity against human LoVo cells assessed as reduction in cell viability incubated for 72 hrs by CCK-8 assay; type: functional, cell-based
SK-OV-3 [26] = test: Anticancer activity against human SK-OV-3 cells assessed as reduction in cell viability incubated for 72 hrs by CellTiter-Glo luminescent cell viability assay; type: functional, cell-based; conditions: SK-OV-3, 72 h
Jurkat [27] = test: Anticancer activity against human Jurkat cells assessed as reduction in cell viability incubated for 72 hrs by CellTiter-Glo luminescent cell viability assay; type: functional, cell-based
HCT-116 = test: Anticancer activity against human HCT-116 cells assessed as reduction in cell viability incubated for 72 hrs by CellTiter-Glo luminescent cell viability assay; type: functional, cell-based; conditions: HCT-116, 72 h
KB 3-1 [28] = test: Anticancer activity against human KB-3-1 cells assessed as reduction in cell viability incubated for 72 hrs by CellTiter-Glo luminescent cell viability assay; type: functional, cell-based; conditions: KB 3-1, 72 h
SW480 = test: Anticancer activity against human SW480 cells assessed as reduction in cell viability incubated for 72 hrs by CellTiter-Glo luminescent cell viability assay; type: functional, cell-based; conditions: SW480, 72 h
U-937 [29] = test: Anticancer activity against human U-937 cells assessed as reduction in cell viability incubated for 72 hrs by CellTiter-Glo luminescent cell viability assay; type: functional, cell-based; conditions: U-937, 72 h
A549 [30] = test: Anticancer activity against human A549 cells assessed as reduction in cell viability incubated for 72 hrs by MTT assay; type: functional, cell-based; conditions: A549, 72 h
MCF7 [31] = test: Anticancer activity against human MCF7 cells assessed as reduction in cell viability incubated for 72 hrs by MTT assay; type: functional, cell-based; conditions: MCF7, 72 h
MDA-MB-231 = test: Anticancer activity against human MDA-MB-231 cells assessed as reduction in cell viability incubated for 72 hrs by MTT assay; type: functional, cell-based; conditions: MDA-MB-231, 72 h
HeLa = test: Anticancer activity against human HeLa cells assessed as reduction in cell viability incubated for 72 hrs by MTT assay; type: functional, cell-based
PaTu 8988t = test: Anticancer activity against human PaTu 8988t cells assessed as reduction in cell viability incubated for 72 hrs by MTT assay; type: functional, cell-based
PANC-1 = test: Anticancer activity against human PANC-1 cells assessed as reduction in cell viability by measuring ATP level incubated for 24 hrs by CellTiter-Glo assay; type: functional, cell-based; conditions: PANC-1, 24 h

SMILES: CCC[C@H](O)[C@@H](C)C(=O)NC/C=C\C[C@@H](C)[C@@H](O)[C@H](C)[C@@H]1C/C=C\C[C@H](C)[C@H](O)Cc2cc(OC)cc(O)c2C(=O)O1
IC50 [1]: 15 nM
IC50 [2]: 15 nM
IC50 (KB 3-1 [3]): 0.3 ng/mL (≈ 0.509 nM)
IC50 (KB-V1): 0.6 ng/mL (≈ 1.02 nM)
IC50 (K562): 0.6 ng/mL (≈ 1.02 nM)
IC50 (U-937 [4]): 0.1 ng/mL (≈ 0.17 nM)
IC50 (A549 [5]): 0.4 ng/mL (≈ 0.678 nM)
IC50 (A498): 0.4 ng/mL (≈ 0.678 nM)
IC50 (SK-OV-3 [6]): 1 ng/mL (≈ 1.7 nM)
IC50 [7]: 1.2 ng/mL (≈ 2.03 nM)

SMILES: CC[C@](C)(NC(=O)[C@H](CC(C)C)NC(=O)[C@H](C)NC(=O)C(C)(C)NC(=O)[C@@H]1CCCCN1C(=O)C(C)(C)NC(=O)C(C)(C)NC(=O)CNC(=O)CCNC(=O)[C@H](CC(C)C)NC(=O)C(C)(C)NC(=O)C(C)(C)NC(=O)[C@@H]1CCCCN1C(=O)C(C)(C)NC(=O)[C@@H]1CCCCN1C(C)=O)C(=O)N[C@@H](CC(C)C)C[N+]1=C2CCCN2CCC1 (Ac-[Pip][Aib][Pip][Aib][Aib]L[βAla]G[Aib][Aib][Pip][Aib]AL[Iva]-X4)
IC50 (PANC-1): 52 nM

Second part, led by results:

IC50 (SK-OV-3 [22]): 38000 nM
IC50 (Jurkat [24]): 12500 nM
SMILES: CC[C@H](C)[C@@H]1NC(=O)[C@H](NC(=O)[C@H](C)NC(=S)[C@H](C)NC(=S)[C@H](C)NC(=S)[C@H](C)NC(=S)[C@H](CCSC)NC(=S)[C@@H](NC(=O)C(C)(O)CC(C)=O)C(C)C)CS/C=C\NC(=O)[C@H](C(O)c2cn(C)c[n+]2C)NC(=O)[C@H](CC(C)C)NC(=O)[C@H](C)NC1=O (stereo partly drawn)
IC50 [8]: 3.9 ng/mL
IC50 [9]: 3.9 ng/mL
IC50 [10]: 3.9 ng/mL
IC50 [11]: 3.9 ng/mL
IC50 [12]: 32 ng/mL
IC50 [13]: 32 ng/mL
IC50 [14]: 32 ng/mL
IC50 [15]: 630 ng/mL
IC50 [16]: 630 ng/mL
IC50 [17]: 630 ng/mL
IC50 [18]: 460 ng/mL
IC50 [19]: 200 ng/mL
IC50 [20]: 200 ng/mL
IC50 [21]: 200 ng/mL
IC50 [23]: 27800 nM

IC50 (HL-60): 1470 nM
IC50 (MCF7 [25]): 830 nM
IC50 (NCI-H1299): 5020 nM
IC50 (LoVo): 1180 nM
IC50 (SK-OV-3 [26]): 20900 nM
IC50 (Jurkat [27]): 5280 nM
IC50 (HCT-116): 510 nM
IC50 (KB 3-1 [28]): 4490 nM
IC50 (SW480): 12200 nM
IC50 (U-937 [29]): 16900 nM
SMILES: CC(=O)C(=O)N[C@H](C(=S)N[C@@H](CC[S+](C)[O-])C(=S)N[C@@H](C)C(=O)N[C@@H](C)C(=S)N[C@@H](C)C(=S)N[C@@H](C)C(=O)N[C@H]1C(=O)N[C@@H](C(C)C)C(=O)N[C@@H](C)C(=O)N[C@@H](Cc2ccccc2)C(=O)N[C@@H](C(O)c2cn(C)c[n+]2C)C(=O)N/C=C\SC1C)C(C)C (stereo partly drawn)

IC50 (A549 [30]): 48 nM
IC50 (MCF7 [31]): 59 nM
IC50 (MDA-MB-231): 72 nM
IC50 (HeLa): 50 nM
SMILES: CCC(C)[C@H](NC(=S)[C@@H](NC(=O)C(C)O)C(C)C)C(=O)NCC(=O)N[C@@H](Cc1ccccc1O)C(=S)N[C@@H](C)C(=S)N[C@H](C(=O)N[C@H]1C(=O)N[C@@H]([C@@H](C)CC)C(=O)N[C@@H](C)C(=O)N[C@@H](C(C)C)C(=O)N[C@@H](Cc2cn(C)c[n+]2C)C(=O)N/C=C\SC1C)C(C)C (stereo partly drawn)
IC50 (PaTu 8988t): 65 nM
